# Marks after values point to notes of the source that are not given here.
# Experiments:
# [1] = test system: human glioma cells (U87); test: In-vitro growth inhibition, MTT method, U87; assay type: cell-based; conditions: Glioma cell, 48 h
# Procedure: (§1) The in-vitro growth inhibitory activity of compounds 1 to 8 of the present disclosure against human glioma cells (U87 and LN229), human hepatoma cells (SMMC-7721) and human pancreatic carcinoma cells (Panc1) was studied adopting the MTT method.
# U87, LN229, SMMC-7721 and Panc1 cells growing at log phase were separately inoculated into a 96-well plate at a density of 5×10^4 cells/mL, 180 μL/well. […] After 48 h of action, a 5 mg/mL MTT solution (20 μL/well) was added. After the cells were incubated in a CO2 incubator for 3 to 4 h, the supernatant was carefully discarded. After the residual liquid was air-dried, acidified isopropanol (50 μL of concentrated hydrochloric acid dissolved in 500 mL of isopropanol) was added at […], and the plate was shaken on a shaker for 30 min. After the crystals were completely dissolved, absorbance OD values were measured by a microplate reader at 570 nm.
# (§2) Cell viability %=(drug-treated cell OD−blank group OD)/(control cell OD−blank group OD)×100
# (§3) Cell killing rate %=1−cell viability %
# [2] = test system: human glioma cells (LN229); test: In-vitro growth inhibition, MTT method, LN229; assay type: cell-based; conditions: LN-229, 48 h
# Procedure: as §1
# (§4) U87, LN229, SMMC-7721 and Panc1 cells growing at log phase were separately inoculated into a 96-well plate at a density of 5×10^4 cells/mL, 180 μL/well. After the cells were attached to the wall, 20 μL of a drug liquid was added to each well, so that the final concentrations of the drug were 0 μM, 5 μM, 10 μM, 20 μM and 50 μM. After 48 h of action, a 5 mg/mL MTT solution (20 μL/well) was added. After the cells were incubated in a CO2 incubator for 3 to 4 h, the supernatant was carefully discarded. After the residual liquid was air-dried, acidified isopropanol (50 μL of concentrated hydrochloric acid dissolved in 500 mL of isopropanol) was added at […], and the plate was shaken on a shaker for 30 min. After the crystals were completely dissolved, absorbance OD values were measured by a microplate reader at 570 nm.
# as §2, §3
# [3] = test system: human hepatoma cells (SMMC-7721); test: In-vitro growth inhibition, MTT method, SMMC-7721; assay type: cell-based; conditions: 48 h
# Procedure: as §1, §4, §2, §3
# [4] = test system: human pancreatic carcinoma cells (Panc1); test: In-vitro growth inhibition, MTT method, Panc1; assay type: cell-based; conditions: PANC-1, 48 h
# Procedure: as §1, §4, §2, §3
# [5] = test system: human glioma cell U87; test: Tumor volume inhibition rate, i.v. dosing; assay type: in vivo, Balb/c nude mice; conditions: Mus musculus, iv, TMZ 10 mg·kg^−1, i.v.
# Procedure: In addition, low-dosage 0409 (20 mg·kg^−1, i.v.) and TMZ (10 mg·kg^−1, i.v.) were synchronously used for an assay to determine the volume tumor inhibition rate.
# [6] = test system: human glioma cell U87; test: Pharmacodynamic study in human glioma cell U87 subcutaneous model; assay type: in vivo, Balb/c nude mice; conditions: compounds 20 mg/Kg, q.d.×14 days
# Description: The route of administration was intragastric administration ([…]., q.d.×14 days).
# [7] = test system: U251MG human glioma cells; test: In-vitro anti-cancer activity screening, SRB method, U251MG; assay type: cell-based; conditions: U-251
# Procedure: (§5) Referring to the method of example 9, two tumor cell lines, U251MG and U251TR human glioma cells, were selected, and temozolomide and the compounds of the present disclosure were subjected to in-vitro anti-cancer activity screening using the SRB method.
# [8] = test system: U251TR human glioma cells; test: In-vitro anti-cancer activity screening, SRB method, U251TR; assay type: cell-based; conditions: Glioma cell, drug-resistant strain
# Procedure: as §5
# [9] = test system: human glioma cell U87; test: In-vivo antitumor activity, U87 tumor-bearing nude mice, i.g. dosing; parameters: species or system Balb/c nude mice; conditions: temozolomide group 30 mg·kg^−1, i.g., q.d., end of the experiment; for Tumor volume: 11 days
# Description: The tumor emergence rate was 100%.
# The solvent was freshly prepared when needed each day.
# [10] = 240 h, Day 10, 20 mg·kg^−1, i.v.
# [11] = 264 h, Day 11, 20 mg·kg^−1, i.v.
# [12] = 288 h, Day 12, 20 mg·kg^−1, i.v.
# [13] = 312 h, Day 13, 20 mg·kg^−1, i.v.
# [14] = 336 h, Day 14, 20 mg·kg^−1, i.v.
# [15] = 360 h, Day 15, 20 mg·kg^−1, i.v.
# [16] = 384 h, Day 16, 20 mg·kg^−1, i.v.
# [17] = 408 h, Day 17, 20 mg·kg^−1, i.v.
# [18] = 432 h, Day 18, 20 mg·kg^−1, i.v.
SMILES,IC50 [1],IC50 [2],IC50 [3],IC50 [4],"inhibition in vivo at 20 mg/kg [5, 10]","inhibition in vivo at 20 mg/kg [5, 11]","inhibition in vivo at 20 mg/kg [5, 12]","inhibition in vivo at 20 mg/kg [5, 13]","inhibition in vivo at 20 mg/kg [5, 14]","inhibition in vivo at 20 mg/kg [5, 15]","inhibition in vivo at 20 mg/kg [5, 16]","inhibition in vivo at 20 mg/kg [5, 17]","inhibition in vivo at 20 mg/kg [5, 18]",Tumor inhibition rate ([6]; Day 1),Tumor inhibition rate ([6]; Day 4),Tumor inhibition rate ([6]; Day 7),Tumor inhibition rate ([6]; Day 10),Tumor inhibition rate ([6]; Day 14 (end of the experiment)),IC50 [7],IC50 [8],also measured
"Cc1ccc2c(=O)n(CCNC(=O)c3ncn4c(=O)n(C)nnc34)[se]c2c1 [Compound 8, 3,4-dihydro-3-methyl-4-oxo-N-(3(2H)-oxo-6-methyl-1,2-benzisoselenazol-2-yl)-ethyl-imidazo[5,1-d]-1,2,3,5-tetrazine-8-carboxamide]",20.4 ± 3.13 µM,13.7 ± 2.52 µM,3.35 ± 2.13 µM,8.65 ± 3.52 µM,86.5%,86.2%,87.2%,88.2%,92.5%,87.7%,87%,88.5%,89.1%,−0.20%,58.48%,83.03%,80.92%,82.68%,9.13 ± 1.52 µM,16.2 ± 1.67 µM,
"Cn1nnc2c(C(=O)NCCn3[se]c4cc(F)ccc4c3=O)ncn2c1=O [Compound 3, 3,4-dihydro-3-methyl-4-oxo-N-(3(2H)-oxo-6-fluoro-1,2-benzisoselenazol-2-yl)-ethyl-imidazo[5,1-d]-1,2,3,5-tetrazine-8-carboxamide]",20.4 ± 7.19 µM,19 ± 1.3 µM,25.4 ± 7.19 µM,7 ± 8.3 µM,57.9%,67.1%,68.4%,58.8%,72.3%,72.7%,78.6%,74.8%,73.8%,−9.91%,47.90%,87.76%,91.47%,88.01%,15.4 ± 1.25 µM,35.5 ± 4.97 µM,
"Cn1nnc2c(C(=O)NCCn3[se]c4ccc(F)cc4c3=O)ncn2c1=O [Compound 2, 3,4-dihydro-3-methyl-4-oxo-N-(3(2H)-oxo-5-fluoro-1,2-benzisoselenazol-2-yl)-ethyl-imidazo[5,1-d]-1,2,3,5-tetrazine-8-carboxamide]",> 500 µM,52.2 ± 10.7 µM,16.4 ± 3.59 µM,22.2 ± 8.78 µM,85%,84.6%,82.9%,85.8%,86.3%,85.8%,84.4%,86.7%,86.5%,,,,,,363 ± 21.4 µM,> 500 µM,
"Cn1nnc2c(C(N)=O)ncn2c1=O [TMZ, temozolomide, reference compound]",373 ± 24.1 µM,> 500 µM,,,36.7%,58.9%,38%,38.1%,24.4%,63.9%,54.3%,51%,54.5%,6.77%,38.14%,54.29%,46.23%,14.26%,431 ± 25.8 µM,> 500 µM,Tumor volume [9]: 209.18±57.83 mm^3; Tumor volume ([9]; listed as Temozolomide): 209.18 ± 57.83*** mm^3; Tumor proliferation inhibition rate [9]: 62.75%; Tumor weight [9]: 0.29 ± 0.07 g; Tumor weight ([9]; listed as Temozolomide): 0.29 ± 0.07 g
"COc1ccc2[se]n(CCNC(=O)c3ncn4c(=O)n(C)nnc34)c(=O)c2c1 [Compound 7, 3,4-dihydro-3-methyl-4-oxo-N-(3(2H)-oxo-5-methoxy-1,2-benzisoselenazol-2-yl)-ethyl-imidazo[5,1-d]-1,2,3,5-tetrazine-8-carboxamide]",47 ± 2.88 µM,21.2 ± 1.28 µM,27 ± 3.22 µM,15.7 ± 6.22 µM,22%,29.7%,37.5%,48%,45.5%,51.4%,59.7%,46.3%,54.7%,,,,,,154 ± 5.64 µM,> 500 µM,
"Cn1nnc2c(C(=O)NCCn3[se]c4ccc(Cl)cc4c3=O)ncn2c1=O [Compound 4, 3,4-dihydro-3-methyl-4-oxo-N-(3(2H)-oxo-5-chloro-1,2-benzisoselenazol-2-yl)-ethyl-imidazo[5,1-d]-1,2,3,5-tetrazine-8-carboxamide]",134 ± 15.8 µM,44.1 ± 6.09 µM,5.6 ± 5.84 µM,24.2 ± 11.9 µM,73.5%,75.2%,74.5%,68.8%,74%,80.6%,84.3%,84.7%,81%,,,,,,126 ± 13.3 µM,> 500 µM,
"Cn1nnc2c(C(=O)NCCn3[se]c4ccc(Br)cc4c3=O)ncn2c1=O [Compound 5, 3,4-dihydro-3-methyl-4-oxo-N-(3(2H)-oxo-5-bromo-1,2-benzisoselenazol-2-yl)-ethyl-imidazo[5,1-d]-1,2,3,5-tetrazine-8-carboxamide]",35.8 ± 6.27 µM,14.4 ± 3.89 µM,7.77 ± 3.28 µM,4.41 ± 2.89 µM,27.1%,27%,36.8%,36.8%,44.6%,59.5%,61.2%,58.5%,64.4%,,,,,,61.7 ± 5.79 µM,56.2 ± 11.7 µM,

# From patent publication US20230167120A1, “ARYL-FUSED ISOSELENAZOLE COMPOUND CONTAINING TETRAZINE SUBSTITUENT, SYNTHESIS METHOD THEREFOR, AND USE THEREOF” (KEAISE MEDICINE WUHAN CORP., priority 2020, published 2023)
